# Patent US12397023B2, “Composition comprising Lactococcus chungangensis for prevention or treatment of fatty liver or metabolic syndrome” (CHUNG ANG UNIVERSITY INDUSTRY ACADEMIC COOPERATION …, priority 2018, dated 2025)
# Tested on: HFD-induced obese mice
# Assay: Serum lipids (TC, TG, HDL, LDL)
# Type: in vivo, C57BL/6J mouse
# Conditions: 12 weeks, mean ± SEM
# Protocol: During the experimental period, the experimental group had free access to diet and drinking water. […] The same volume of PBS was administered to the negative control group and the positive control group. […] All mice were gavaged once a week for 12 weeks.
# Blood samples were collected after 12 weeks of treatment from two mice from each experimental group in centrifuge tubes containing EDTA. Blood was drawn by puncturing the orbit through the orbit and within the orbit. Samples were centrifuged at 1200× for 15 minutes and incubated at 4° C. for 10 minutes. Serum aspartate aminotransferase (AST), alanine aminotransferase (ALT), TC, high-density lipoprotein (HDL), low-density lipoprotein (LDL) and TG were analyzed in the serum supernatant using an appropriate assay kit (Green Cross Biopharmaceutical, Yongin, Korea). The same samples were also used for hormone measurements.
structure (smiles),measurement,value
CCC(C)(C)C(=O)O[C@H]1C[C@@H](C)C=C2C=C[C@H](C)[C@H](CC[C@@H]3C[C@@H](O)CC(=O)O3)[C@H]21 [Simvastatin],TC,51.50 ± 1.50 mg/dL
same,TG,30.00 ± 5.00 mg/dL
